In the supplement of paper PMC10307832:

How the values were obtained:
Assay in all cases: relative viability (nuclei count vs DMSO), 5 days (fraction); higher = more cells survive
BGJ398 + AZD7762 = compound: CCN1CCN(c2ccc(Nc3cc(N(C)C(=O)Nc4c(Cl)c(OC)cc(OC)c4Cl)ncn3)cc2)CC1 [BGJ398] + NC(=O)Nc1cc(-c2cccc(F)c2)sc1C(=O)N[C@H]1CCCNC1 [AZD7762] (partner 0.2 µM)
How it was run: (§1)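 Relative viability was taken as the ratio of nuclei in treated wells to nuclei in vehicle wells. Lung cancer cell lines in 1536-well plates received compounds by pin tool one day after seeding, either one drug alone or a fixed anchor-drug dose plus five library-drug doses (not always all listed) in √10 steps. Nuclei were counted on 4× images after 5 days of treatment, and values are medians of duplicate plates.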

BGJ398 + Phenformin = compound: CCN1CCN(c2ccc(Nc3cc(N(C)C(=O)Nc4c(Cl)c(OC)cc(OC)c4Cl)ncn3)cc2)CC1 [BGJ398] + N=C(N)NC(=N)NCCc1ccccc1 [Phenformin] (partner 250 µM)
How it was run: as §1

[1] = compound: C1=CC2=NC=CN=C2C=C1/C=C/3\C(=O)NC(=O)S3 + CC(C)C[C@H](NC(=O)[C@H](Cc1ccccc1)NC(=O)c1cnccn1)B(O)O [Bortezomib] (partner 0.002 µM)
How it was run: as §1

[2] = compound: C1=CC2=NC=CN=C2C=C1/C=C/3\C(=O)NC(=O)S3 + O=C(CCCCCCC(=O)Nc1ccccc1)NO [Vorinostat] (partner 1 µM)
How it was run: as §1

| Cell Line | relative viability (BGJ398 + AZD7762; first compound 0.01 µM) | relative viability (BGJ398 + AZD7762; first compound 0.03162 µM) | relative viability (BGJ398 + AZD7762; first compound 0.1 µM) | relative viability (BGJ398 + AZD7762; first compound 0.3162 µM) | relative viability (BGJ398 + AZD7762; first compound 1 µM) | relative viability (BGJ398 + Phenformin; first compound 0.01 µM) | relative viability (BGJ398 + Phenformin; first compound 0.03162 µM) | relative viability (BGJ398 + Phenformin; first compound 0.1 µM) | relative viability (BGJ398 + Phenformin; first compound 0.3162 µM) | relative viability (BGJ398 + Phenformin; first compound 1 µM) | relative viability ([1]; first compound 0.02 µM) | relative viability ([1]; first compound 0.06325 µM) | relative viability ([1]; first compound 0.2 µM) | relative viability ([1]; first compound 0.6325 µM) | relative viability ([1]; first compound 2 µM) | relative viability ([2]; first compound 0.02 µM) | relative viability ([2]; first compound 0.06325 µM) | relative viability ([2]; first compound 0.2 µM) | relative viability ([2]; first compound 0.6325 µM) | relative viability ([2]; first compound 2 µM) |
| --- | --- | --- | --- | --- | --- | --- | --- | --- | --- | --- | --- | --- | --- | --- | --- | --- | --- | --- | --- | --- |
| EMC-BAC-2 | 1.09 | 1.18 | 1.14 | 1.12 | 1.04 | 0.497 | 0.585 | 0.558 | 0.5 | 0.509 | 1.01 | 1.2 | 1.02 | 0.997 | 0.895 | 0.488 | 0.535 | 0.602 | 0.452 | 0.222 |
| NCI-H2405 | 0.84 | 0.857 | 0.781 | 0.757 | 0.656 | 0.394 | 0.432 | 0.377 | 0.394 | 0.371 | 0.96 | 1.06 | 0.991 | 1 | 0.782 | 1.04 | 1.14 | 1.11 | 1.08 | 0.526 |
| EPLC-272H | 0.209 | 0.21 | 0.252 | 0.174 | 0.306 | 0.243 | 0.283 | 0.272 | 0.247 | 0.38 | 0.8 | 1.05 | 0.898 | 0.857 | 0.808 | 0.385 | 0.411 | 0.562 | 0.413 | 0.524 |
| NCI-H1915 | 0.696 | 0.665 | 0.691 | 0.576 | 0.724 | 0.374 | 0.367 | 0.365 | 0.354 | 0.367 | 0.985 | 1.05 | 1.05 | 0.99 | 1 | 0.578 | 0.525 | 0.636 | 0.468 | 0.499 |
| NCI-H596 | 1.1 | 0.993 | 0.893 | 0.911 | 0.799 | 0.597 | 0.724 | 0.842 | 0.722 | 0.66 | 1.36 | 1.06 | 1.17 | 0.876 | – | 0.581 | 0.59 | 0.646 | 0.499 | 0.6 |
| NCI-H322M | 0.689 | 0.46 | 0.577 | 0.607 | 0.601 | 0.791 | 0.663 | 0.774 | 0.696 | 0.845 | 1.18 | 1.1 | 1.26 | 1.19 | 0.973 | 0.893 | 0.852 | 0.905 | 0.891 | 0.744 |
| NCI-H647 | 0.642 | 0.489 | 0.497 | 0.326 | 0.373 | 0.454 | 0.514 | 0.498 | 0.455 | 0.411 | 1.1 | 1.16 | 1.11 | 0.72 | 0.951 | 0.545 | 0.898 | 0.485 | 0.546 | 0.494 |
| NCI-H2085 | 1.04 | 0.974 | 0.948 | 0.884 | 0.963 | 0.668 | 0.663 | 0.817 | 0.782 | 0.807 | 1.03 | 1.07 | 1.02 | 0.824 | 1.01 | 0.729 | 0.716 | 0.799 | 0.781 | 0.748 |
| NCI-H727 | 0.996 | 0.693 | 0.574 | 0.468 | 0.486 | 0.668 | 0.521 | 0.635 | 0.568 | 0.516 | 0.777 | 0.828 | 0.795 | 0.833 | 0.475 | 1.23 | 1.15 | 1.23 | 1.22 | 0.679 |
| NCI-H441 | – | 1.07 | 1.25 | 0.961 | 1.56 | 0.793 | 0.642 | 0.848 | 0.879 | 1.01 | 0.272 | 0.289 | – | 0.403 | 0.494 | 0.794 | 0.786 | 0.948 | 0.845 | 0.509 |
| LOU-NH91 | 0.753 | 0.779 | 0.752 | 0.664 | 0.762 | 0.676 | – | 0.712 | 0.455 | 0.474 | 0.415 | 0.517 | 0.512 | 0.562 | 0.513 | 0.965 | 0.887 | 0.987 | 0.908 | 0.727 |
| NCI-H3122 | 0.51 | 1 | 1.04 | 1.02 | 1.17 | 0.353 | 0.387 | 0.373 | 0.339 | 0.347 | 1.02 | 1.01 | 1 | 1.08 | 0.975 | 0.926 | 0.981 | 1.03 | 1.07 | 1.05 |
| NCI-H460 | 0.73 | 0.655 | 0.593 | 0.53 | 0.621 | 0.491 | 0.565 | 0.622 | 0.472 | 0.465 | 1.01 | 1.05 | 1.03 | 0.932 | 0.942 | 0.657 | 0.668 | 0.759 | 0.716 | 0.819 |
| NCI-H650 | 0.877 | 0.934 | 0.941 | 0.875 | 1.04 | 0.419 | 0.442 | 0.512 | 0.458 | 0.391 | 0.977 | 0.775 | 0.907 | 0.78 | 0.379 | 0.465 | 0.377 | 0.434 | 0.42 | 0.254 |
| NCI-H1734 | 0.504 | 0.56 | 0.538 | 0.554 | 0.624 | 0.368 | 0.398 | 0.408 | 0.376 | 0.432 | 0.761 | – | 1 | 0.919 | 0.747 | 0.846 | – | 0.907 | 0.767 | 0.556 |
| LXF-289 | 1.02 | 1.03 | 1.06 | 0.978 | 1.06 | 0.536 | 0.509 | 0.542 | 0.473 | 0.502 | 0.977 | 0.985 | 1.05 | 0.941 | 1.02 | 0.778 | 0.576 | 0.73 | 0.778 | 0.852 |
| H3255 | 0.837 | 0.681 | 1.01 | 0.78 | 0.826 | 0.338 | – | 0.371 | 0.231 | 0.35 | 0.869 | 0.91 | 0.778 | 0.682 | 0.741 | 0.781 | 0.884 | 0.835 | 0.865 | 0.67 |
| 201T | 0.657 | 0.595 | 0.63 | 0.521 | 0.747 | 0.45 | 0.444 | 0.457 | 0.382 | 0.386 | 0.979 | 1.1 | 1.1 | 1.08 | 1.03 | 0.763 | 0.949 | 0.985 | 0.898 | 0.723 |
| NCI-H2126 | 1.08 | 1.05 | 1.05 | 1.06 | 1.03 | 0.505 | 0.57 | 0.541 | 0.547 | 0.475 | 1.08 | 1.16 | 1.11 | 1.08 | 0.716 | 0.666 | 0.825 | 0.843 | 0.801 | 0.462 |
| HOP-62 | 0.651 | 0.703 | 0.829 | 0.601 | 0.916 | 0.649 | 0.704 | 0.737 | 0.604 | 0.773 | 0.908 | 0.819 | 1.07 | 0.757 | 0.707 | 0.571 | 0.694 | 0.732 | 0.581 | 0.571 |
| CAL-12T | 0.656 | 0.664 | 0.698 | 0.636 | 0.625 | 0.542 | 0.621 | 0.599 | 0.579 | 0.642 | 1.05 | 1.06 | 0.921 | 0.97 | 0.966 | 0.78 | 0.923 | 0.663 | 0.629 | 0.762 |
| NCI-H1755 | 0.487 | 0.496 | 0.384 | 0.339 | 0.399 | 0.533 | 0.669 | 0.618 | 0.656 | 0.601 | 0.927 | 1.05 | 0.961 | 0.917 | 0.859 | 0.681 | 0.695 | 0.832 | 0.858 | 0.818 |
